These molecules were tested on Human primary T cells (assay: IL-2 ELISA, Human Primary T Cell, Anti-CD3+CD28+ (Example 3)). Details: Homo sapiens, T-cell, 24 h, anti-CD3+CD28 stimulation.
Assay type: cell-based
Summary of the method: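 Human primary T cells, 100,000 per well, were pre-incubated with compound in Yssel's medium for 1 h at 37 °C. The counter-assay used 0.5 ng/ml PMA with 0.1 uM ionomycin final.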

Row | IC50 [nM] | SMILES
1 | 4610 | CCN(CC)C1CCC(Nc2nc(Nc3ccc(OC)c(Cl)c3)ncc2F)CC1 (stereo not drawn) [IV-5, N2-(3-Chloro-4-methoxy)phenyl-N4-(4-diethylamino)cyclohexyl-5-fluoro-2,4-pyrimidinediamine]
2 | 968 | CN1C(C)(C)CC(Nc2nc(Nc3ccc4c(c3)n(C)c(=O)n4C)ncc2F)CC1(C)C [II-56]
3 | 1690 | CN1C(C)(C)CC(N(Cc2ccccc2)c2nc(Nc3ccc(N4CCOCC4)c(C(F)(F)F)c3)ncc2F)CC1(C)C [Compound I-312]
4 | 145 | CCN1C(=O)COc2cc(Nc3ncc(C#N)c(NC4CC(C)(C)N(C)C(C)(C)C4)n3)ccc21 [II-71]
5 | 3500 | COc1cc(Nc2ncc(OC)c(NC3CC(C)(C)N(C)C(C)(C)C3)n2)cc(OC)c1 [Compound I-423]
6 | 1840 | CN1C(C)(C)CC(Nc2nc(Nc3cc4c(cc3Cl)OCO4)ncc2F)CC1(C)C [II-115]
7 | 990 | CN1C(C)(C)CC(Nc2nc(Nc3ccc4c(c3)C(=O)NC4=O)ncc2F)CC1(C)C [II-148]
8 | 11200 | CN1C(C)(C)CC(Nc2nc(Nc3nnc(C(F)(F)F)s3)ncc2F)CC1(C)C [II-13]
9 | 890 | Cc1cccc2sc(Nc3ncc(F)c(NC4CC(C)(C)N(C)C(C)(C)C4)n3)nc12 [II-19]

Same assay, conditions: anti-CD3+CD28 stimulation, 24 hours

Row | IC50 [nM] | SMILES
10 | 11200 | COc1cc(Nc2ncc(F)c(NC3CCC(C)(C)N(C)C(C)(C)C3)n2)cc(OC)c1OC (stereo not drawn) [Compound I-266, 5-Fluoro-N2-[3,4,5-trimethoxy]phenyl-N4-(1,2,2,7,7-pentamethylazepan-4-yl)-2,4-pyrimidinediamine]
11 | 3910 | CN1C(C)(C)CC(Nc2nc(Nc3ccc(N4CCN(S(C)(=O)=O)CC4)c(Cl)c3)ncc2C(N)=O)CC1(C)C [Compound I-91]
12 | 1880 | CN1C(C)(C)CC(Nc2nc(Nc3ccc(-c4cc5ccccc5s4)c(C(F)(F)F)c3)ncc2F)CC1(C)C [Compound I-114]
13 | 971 | CN1C(C)(C)CC(Nc2nc(Nc3ccc(N4CCN(S(C)(=O)=O)CC4)c(C#N)c3)ncc2C#N)CC1(C)C [Compound I-196]
14 | 1240 | CN1C(C)(C)CC(Nc2nc(Nc3ccc(OC(F)(F)F)c(-c4cnn(C)c4)c3)ncc2F)CC1(C)C [Compound I-210]
15 | 615 | CN1C(C)(C)CC(Nc2nc(Nc3cc(-c4cccnc4)cc(C(F)(F)F)c3)ncc2F)CC1(C)C [Compound I-202]
16 | 1040 | CC1(C)CC(Nc2nc(Nc3cc(OCC(F)(F)F)cc(OCC(F)(F)F)c3)ncc2C(N)=O)CC(C)(C)N1 [Compound I-408]
17 | 270 | CC1(C)CC(Nc2nc(Nc3cc(OCC(F)(F)F)cc(OCC(F)(F)F)c3)ncc2C#N)CC(C)(C)N1 [Compound I-419]
18 | 2960 | COCCOc1cc(Nc2ncc(F)c(NC3CC(C)(C)NC(C)(C)C3)n2)cc(OCCOC)c1 [Compound I-394]
19 | 424 | CN1C(C)(C)CC(Nc2nc(Nc3cnc(N4CCN(S(C)(=O)=O)CC4)c(Cl)c3)ncc2F)CC1(C)C [Compound I-289]
20 | 720 | CN1C(C)(C)CC(Nc2ccnc(Nc3ccc(N4CCN(S(C)(=O)=O)CC4)c(C(F)(F)F)c3)n2)CC1(C)C [Compound I-228]
21 | 522 | CN1C(C)(C)CC(Nc2nc(Nc3cc(-c4ccncc4)cc(C(F)(F)F)c3)ncc2F)CC1(C)C [Compound I-201]
22 | 890 | COC(=O)N1CCN(c2cc(Nc3ncc(F)c(NC4CC(C)(C)N(C)C(C)(C)C4)n3)ccc2Cl)CC1 [Compound I-43]
23 | 1850 | CN1CCN(c2ccc(Nc3ncc(F)c(NC4CC(C)(C)N(C)C(C)(C)C4)n3)cc2CO)CC1 [Compound I-63]
24 | 2190 | COc1ccc(Nc2ncc(F)c(NC3CC(C)(C)N(C)C(C)(C)C3)n2)cc1OCc1cccnc1 [Compound I-418]

Row | SMILES | IC50 [nM]
25 | CC1(C)CC(Nc2nc(Nc3cc(Cl)cc(Cl)c3)ncc2F)CC(C)(C)N1CCN [Compound I-447] | 910
26 | CN1CCN(c2ccc(Nc3ncc(F)c(N(C)C4CC(C)(C)N(C)C(C)(C)C4)n3)cc2Cl)CC1 [Compound I-60] | 524
27 | CN1C(C)(C)CC(Nc2nc(Nc3ccc(C(=O)NCCc4ccccn4)c(Cl)c3)ncc2F)CC1(C)C [Compound I-362] | 667

From patent US8993585B2, “Cyclic amine substituted pyrimidinediamines as PKC inhibitors” (Rigel Pharmaceuticals, Inc., priority 2007, dated 2015)
